# Test results taken from patent US20240116910A1, “Heterocycles as WIP1 Inhibitors” (PMV Pharmaceuticals, Inc., priority 2022, published 2024).
# Biological target: recombinant His-tag Wip1(2-420) protein (amino acids #2-420) (Homo sapiens (Human), UniProt O15297)
# Test: Wip1(2-420) phosphatase enzyme FDP assay
# Format: biochemical
# Conditions: fluorescein diphosphate (FDP) substrate, RT 2 hours, fluorescence Ex485/Em535; read-out: WIP1 (Truncated 2-420) FDP Assay: IC50
# Sequence of recombinant His-tag Wip1(2-420) protein (amino acids #2-420) (O15297 2-420): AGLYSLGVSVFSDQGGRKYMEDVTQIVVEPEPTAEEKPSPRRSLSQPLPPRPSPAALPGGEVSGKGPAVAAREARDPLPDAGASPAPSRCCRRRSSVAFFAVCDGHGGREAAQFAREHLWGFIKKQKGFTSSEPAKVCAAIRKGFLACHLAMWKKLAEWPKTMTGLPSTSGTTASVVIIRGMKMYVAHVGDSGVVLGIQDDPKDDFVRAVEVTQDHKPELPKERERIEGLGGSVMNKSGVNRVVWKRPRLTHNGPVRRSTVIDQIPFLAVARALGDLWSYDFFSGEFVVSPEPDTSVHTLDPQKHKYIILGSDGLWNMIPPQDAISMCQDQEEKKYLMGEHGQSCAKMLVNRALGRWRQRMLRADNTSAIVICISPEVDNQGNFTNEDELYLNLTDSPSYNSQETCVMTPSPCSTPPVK
row,SMILES,IC50 [nM]
1,"Cc1ncc(Cl)cc1N[C@@H](C)c1ccc(C(=O)N[C@@H](CC2CC3CC3C2)C(=O)Nc2cnn(C)c2)s1 (stereo partly drawn) [Compound 179, (2S)-3-{bicyclo[3.1.0]hexan-3-yl}-2-({5-[(1S)-1-[(5-chloro-2-methylpyridin-3-yl)amino]ethyl]thiophen-2-yl}formamido)-N-(1-methyl-1H-pyrazol-4-yl)propanamide]",4
2,"Cc1ncc(Cl)cc1N[C@@H](C)c1ccc(C(=O)N[C@@H](CC2CCCC2)C(=O)NCC(=O)O)s1 [Compound 93, 2-[(2S)-2-({5-[(1S)-1-[(5-chloro-2-methylpyridin-3-yl)amino]ethyl]thiophen-2-yl}formamido)-3-cyclopentylpropanamido]acetic acid]",208
3,"Cc1ncc(Cl)cc1NC(Cc1ccccc1)c1ccc(C(=O)N[C@@H](CC2CCCC2)C(=O)NC23CC(F)(C2)C3)s1 (stereo partly drawn) [Compound 212, (2S)-2-[(5-{1-[(5-chloro-2-methylpyridin-3-yl)amino]-2-phenylethyl}thiophen-2-yl)formamido]-3-cyclopentyl-N-{3-fluorobicyclo[1.1.1]pentan-1-yl}propanamide]",23
4,"COc1ccc(-c2ncc(Cl)cc2N[C@@H](C)c2ccc(C(=O)N[C@@H](CC3CCCC3)C(=O)NC3CC3)s2)cc1 [Compound 236, (2S)-2-({5-[(1S)-1-{[5-chloro-2-(4-methoxyphenyl)pyridin-3-yl]amino}ethyl]thiophen-2-yl}formamido)-3-cyclopentyl-N-cyclopropylpropanamide]",7
5,"CNC(=O)[C@H](CC1CCCCC1)NC(=O)c1ccc([C@H](C)Nc2cc(Cl)cnc2C)s1 [Compound 265, (2S)-2-({5-[(1S)-1-[(5-chloro-2-methylpyridin-3-yl)amino]ethyl]thiophen-2-yl}formamido)-3-cyclohexyl-N-methylpropanamide]",8
6,"Cc1ncc(Cl)cc1N[C@@H](C)c1ccc(C(=O)N[C@@H](CC2CCCC2)C(=O)NC23COC(C2)C3)s1 [Compound 113, (2S)-2-({5-[(1S)-1-[(5-chloro-2-methylpyridin-3-yl)amino]ethyl]thiophen-2-yl}formamido)-3-cyclopentyl-N-{2-oxabicyclo[2.1.1]hexan-4-yl}propanamide]",11
7,"Cc1ncc(Cl)cc1N[C@@H](C)c1ccc(C(=O)N[C@@H](CC2CCCC2)C(=O)N[C@H]2C[C@@H](C)C2)s1 [Compound 99, (2S)-2-({5-[(1S)-1-[(5-chloro-2-methylpyridin-3-yl)amino]ethyl]thiophen-2-yl}formamido)-3-cyclopentyl-N-[(1r,3s)-3-methylcyclobutyl]propanamide]",7
8,"Cc1ncc(Cl)cc1N[C@@H](C)c1ccc(C(=O)N[C@@H](CC2CCCC2)C(=O)Nc2cnn(C)c2)s1 [Compound 98, (2S)-2-({5-[(1S)-1-[(5-chloro-2-methylpyridin-3-yl)amino]ethyl]thiophen-2-yl}formamido)-3-cyclopentyl-N-(1-methyl-1H-pyrazol-4-yl)propanamide]",6
9,"COC(=O)c1ncc(Cl)cc1N[C@H](C)c1ccc(C(=O)N[C@@H](CC2CCCC2)C(=O)NC2CC2)s1 [Compound 103, methyl 5-chloro-3-{[(1R)-1-(5-{[(1S)-2-cyclopentyl-1-(cyclopropylcarbamoyl)ethyl]carbamoyl}thiophen-2-yl)ethyl]amino}pyridine-2-carboxylate]",520
10,"Cc1ncc(Cl)cc1N[C@@H](C)c1ccc(C(=O)N[C@@H](CC2CCCC2)C(=O)Nc2ccnc(O)c2)s1 [Compound 139, (2S)-2-({5-[(1S)-1-[(5-chloro-2-methylpyridin-3-yl)amino]ethyl]thiophen-2-yl}formamido)-3-cyclopentyl-N-(2-hydroxypyridin-4-yl)propanamide]",5
11,"Cc1ncc(Cl)cc1N[C@H](C)c1ncc(C(=O)N[C@@H](CC2CCCC2)C(=O)NC2CC2)s1 [Compound 127, (2S)-2-({2-[(1R)-1-[(5-chloro-2-methylpyridin-3-yl)amino]ethyl]-1,3-thiazol-5-yl}formamido)-3-cyclopentyl-N-cyclopropylpropanamide]",1550
12,"Cc1ncc(Cl)cc1N[C@@H](C)c1ncc(C(=O)N[C@@H](CC2CCCC2)C(=O)NC2CC2)s1 [Compound 311, (2S)-2-({2-[(1S)-1-[(5-chloro-2-methylpyridin-3-yl)amino]ethyl]-1,3-thiazol-5-yl}formamido)-3-cyclopentyl-N-cyclopropylpropanamide]",1550
13,"COc1cnc2ccc(NC(=O)[C@H](CC3CCCC3)NC(=O)c3ccc([C@H](C)Nc4cc(Cl)cnc4C)s3)cc2c1 [Compound 180, (2S)-2-({5-[(1S)-1-[(5-chloro-2-methylpyridin-3-yl)amino]ethyl]thiophen-2-yl}formamido)-3-cyclopentyl-N-(3-methoxyquinolin-6-yl)propanamide]",4

# Further molecules by falling IC50, results first:
row,IC50 [nM],SMILES
1,154,"C[C@H](c1ccc(C(=O)N[C@@H](CC2CCCC2)C(=O)NC2CC2)s1)N1CCN(C)c2ccc(Cl)cc21 [Compound 240, (2S)-2-({5-[(1R)-1-(7-chloro-4-methyl-1,2,3,4-tetrahydroquinoxalin-1-yl)ethyl]thiophen-2-yl}formamido)-3-cyclopentyl-N-cyclopropylpropanamide]"
2,38,"C[C@@H](c1ccc(C(=O)N[C@@H](CC2CCCC2)C(=O)NC2CC2)s1)N1CCN(C)c2ccc(Cl)cc21 [Compound 239, (2S)-2-({5-[(1S)-1-(7-chloro-4-methyl-1,2,3,4-tetrahydroquinoxalin-1-yl)ethyl]thiophen-2-yl}formamido)-3-cyclopentyl-N-cyclopropylpropanamide]"
3,37,"Cc1ncc(Cl)cc1N[C@@H](C)c1ccc(C(=O)N[C@H](C(=O)NC2CC2)C2CCCCC2)s1 [Compound 174, (2S)-2-({5-[(1S)-1-[(5-chloro-2-methylpyridin-3-yl)amino]ethyl]thiophen-2-yl}formamido)-2-cyclohexyl-N-cyclopropylacetamide]"
4,14,"Cc1ncc(Cl)cc1N[C@@H](C)c1ccc(C(=O)N[C@@H](C[C@H]2CCC3C[C@@H]32)C(=O)NC2CC2)s1 (stereo partly drawn) [Compound 272, (2S)-3-[(2R)-bicyclo[3.1.0]hexan-2-yl]-2-({5-[(1S)-1-[(5-chloro-2-methylpyridin-3-yl)amino]ethyl]thiophen-2-yl}formamido)-N-cyclopropylpropanamide]"
5,10,"COc1cccc(-c2ncc(Cl)cc2N[C@@H](C)c2ccc(C(=O)N[C@@H](CC3CCCC3)C(=O)NC3CC3)s2)c1 [Compound 267, (2S)-2-({5-[(1S)-1-{[5-chloro-2-(3-methoxyphenyl)pyridin-3-yl]amino}ethyl]thiophen-2-yl}formamido)-3-cyclopentyl-N-cyclopropylpropanamide]"
6,10,"C[C@H](Nc1cc(Cl)cnc1C(F)(F)F)c1ccc(C(=O)N[C@@H](CC2CCCC2)C(=O)NC2CC2)s1 [Compound 189, (2S)-2-({5-[(1S)-1-{[5-chloro-2-(trifluoromethyl)pyridin-3-yl]amino}ethyl]thiophen-2-yl}formamido)-3-cyclopentyl-N-cyclopropylpropanamide]"
7,9,"Cc1cc(NC(=O)[C@H](CCC(C)(C)C)NC(=O)c2ccc([C@H](C)Nc3cc(Cl)cnc3C)s2)ccn1 [Compound 157, (2S)-2-({5-[(1S)-1-[(5-chloro-2-methylpyridin-3-yl)amino]ethyl]thiophen-2-yl}formamido)-5,5-dimethyl-N-(2-methylpyridin-4-yl)hexanamide]"
8,7,"Cc1ncc(Cl)cc1N[C@@H](C)c1ccc(C(=O)N[C@@H](CC2CCCC2)C(=O)Nc2ccc(C#N)cc2)s1 [Compound 85, (2S)-2-({5-[(1S)-1-[(5-chloro-2-methylpyridin-3-yl)amino]ethyl]thiophen-2-yl}formamido)-N-(4-cyanophenyl)-3-cyclopentylpropanamide]"
9,7,"CCNC(=O)[C@H](CC1CCCCC1)NC(=O)c1ccc([C@H](C)Nc2cc(Cl)cnc2C)s1 [Compound 264, (2S)-2-({5-[(1S)-1-[(5-chloro-2-methylpyridin-3-yl)amino]ethyl]thiophen-2-yl}formamido)-3-cyclohexyl-N-ethylpropanamide]"
10,6,"Cc1cc(NC(=O)[C@H](CC2CCCC2)NC(=O)c2ccc(C(C)(C)Nc3cc(Cl)cnc3C)s2)ccn1 [Compound 270, (2S)-2-[(5-{2-[(5-chloro-2-methylpyridin-3-yl)amino]propan-2-yl}thiophen-2-yl)formamido]-3-cyclopentyl-N-(2-methylpyridin-4-yl)propanamide]"
11,5,"Cc1ncc(Cl)cc1N[C@@H](C)c1ccc(C(=O)N[C@@H](CC2CCCC2)C(=O)Nc2ccc(C(N)=O)nc2)s1 [Compound 153, 5-[(2S)-2-({5-[(1S)-1-[(5-chloro-2-methylpyridin-3-yl)amino]ethyl]thiophen-2-yl}formamido)-3-cyclopentylpropanamido]pyridine-2-carboxamide]"
